Reference: publication PMC10394516, “The pharmacokinetic profile of brensocatib and its effect on pharmacodynamic biomarkers including NE, PR3, and CatG in various rodent species” (Frontiers in Pharmacology, 2023)

Legend:
Assay type in all cases: in vivo
NE = assay: PD recovery study, bone marrow NE activity, C57BL/6 mice; settings: for Percent change from vehicle NE: bone marrow
Protocol: A PD recovery study was performed in female C57BL/6 mice dosed BID for 8 consecutive days. Mice were dosed by oral gavage either with vehicle (0 mg/kg) or 5 mg/kg brensocatib (BID; 10 mg/kg/day). After 8 consecutive days of dosing, the animals were maintained without further treatment until prescribed sacrifice (days: 1, 3, 6, 8, and 10 days post final dose). Plasma was collected from animals during the first 24 h of dosing at −0.5 (half-hour prior to dosing), 1, 8, 9, and 24 h post initial dose. Note that the 8- and 24-h plasma samples were prior to the afternoon dose and prior to the second day dose, respectively. Plasma was used for PK analysis via LC-MS/MS. On prescribed days, animals were sacrificed, and the hind limb bones (femurs and tibias) were collected at necropsy for bone marrow analysis of NSP activities by kinetic enzymatic assays.
(§1) For the mice, each animal had the femurs and tibias of both hind limbs harvested. For the rat, the femur and tibia from a single hind limb per animal was harvested. Bones were kept on wet ice until processing for bone marrow collection. In brief, bone cutters were used to cut the epiphysis (knobby ends) off the long bones to expose the bone marrow filled cavity. Each bone cavity was then flushed with 5 mL/bone (mouse) or 10 mL/bone (rat) of ice-cold RPMI media through a […] and collected in a 50-mL conical tube. Cells were spun down at 2,500 × g at 4°C for 5 min and the supernatant was aspirated. After which, bone marrow cells were lysed with 1X red blood cell (RBC) lysis buffer (Abcam, ab204733) to eliminate contaminating RBCs and washed with PBS to remove any residual RBC lysis buffer. The resulting white blood cells (WBC) were subsequently lysed with 1% (v/v) Triton X-100 in PBS. Lysates were added to 96-well plates and stored at −80°C until NSP analyses.
(§2) Bone marrow lysates prepared as described above were diluted and plated onto 96-well assay plates to quantify NSP activities as described previously ([Basso et al., 2022]). Briefly, peptide substrates for NE (N-Methoxysuccinyl-Ala-Ala-Pro-Val-7-amido-4-methylcoumarin; Sigma; St. Louis, MO; Excitation/Emission at 350/450 nm), PR3 ((7-Methoxycoumarin-4-yl)acetyl-lysyl-(picolinoyl)-Tyr-Asp-Ala-Lys-Gly-Asp-N-3-(2-4-dinitrophenyl)-2-3-diaminopropyonyl-NH2); GenScript; Piscataway, NJ; Excitation/Emission at 340/430 nm), and CatG (N-Succinyl-Ala-Ala-Pro-Phe p nitroanilide; Sigma; Absorbance at 405 nm) were added at a final assay concentration of 100 μM, 40 μM, and 200 μM, respectively, and either fluorescence or absorbance was quantified using a Synergy microplate reader (BioTek; Winooski, VT). The specific NSP activity in each sample was calculated as the total activity minus the activity in the presence of a specific NSP inhibitor (if used), including elastase inhibitor (Abcam) for NE, sivelestat (Abcam) for PR3, and cathepsin G inhibitor I (Cayman Chemical; Ann Arbor, MI) for CatG. NSP concentrations were interpolated based on their activities relative to the standard curves created using active human NE protein (Sigma), active human PR3 protein (Sigma), and active human CatG protein (Sigma), respectively. Due to unavailability of commercial mouse and/or rat NE, PR3, and CatG proteins, the corresponding human proteins were used instead since their catalytic ability is considered to be conserved across species. A portion of each cell lysate sample was retained for protein quantification using a Pierce™ BCA Protein Assay Kit (Thermo Fisher). The NSP activities were normalized for the cell lysate protein concentrations.
The Pierce™ BCA Protein Assay Kit was used to measure the total protein of the samples after lysis to allow for subsequent normalization. The manufacturer’s instructions for use were followed when performing this assay on a portion of the sample lysates which were diluted in PBS, the same diluent as used for preparation of the standard. Plates were read on the Biotek Synergy plate reader with Gen5 software.

PR3 = assay: Bone marrow PR3 activity after repeated dosing, BALB/c mice; settings: for Reduction of PR3 activity vs vehicle / Change From Vehicle Control (%) PR3: 7 days
Protocol: (§3) Briefly, animals were weighed and randomized into different treatment groups. In total, three different dosing levels of brensocatib were tested in each species and strain; each QD dosing level was equivalent to 1.5-times the matching daily BID dose. For BID dosing, the second daily dose was administered 8-h post the morning dose. C57BL/6 mice were dosed either BID or QD for 7 consecutive days at 0/0, 0.5/0.75, 2/3, and 20/30 mg/kg/day (BID/QD). BALB/c mice were dosed for 7 consecutive days at 0/0, 0.2/0.3, 2/3, and 20/30 mg/kg/day (BID/QD). SD rats were dosed for 9 consecutive days at 0/0, 0.2/0.3, 2/3, and 20/30 mg/kg/day (BID/QD). Wistar rats were dosed for 7 consecutive days at 0/0, 0.2/0.3, 2/3, and 20/30 mg/kg/day (BID/QD).
(§4) At the completion of the study, animals were sacrificed 16–24 h post their final dose. The hind limb bones (femurs and tibias) were collected at necropsy for bone marrow analysis of NSP activities by kinetic enzymatic assays ([Basso et al., 2022]). See section Quantification of Bone Marrow NSP Activities for details.
as §1, §2
(§5) The Pierce™ BCA Protein Assay Kit was used to measure the total protein of the samples after lysis to allow for subsequent normalization. […]

CatG = assay: Bone marrow CatG activity after repeated dosing, BALB/c mice; settings: for Reduction of CatG activity vs vehicle / Change From Vehicle Control (%) CatG: 7 days
Protocol: as §3, §4, §1, §2, §5

[1] = after 8 days of 5 mg/kg BID, curve fit with free min and max
[2] = BID highest dose (20 mg/kg/day)
[3] = highest dose level 20/30 (BID/QD) mg/kg/day
[4] = oral BID 0.2 mg/kg/day, 16 h post final dose
[5] = oral BID 2 mg/kg/day, 16 h post final dose
[6] = oral BID 20 mg/kg/day, 16 h post final dose
[7] = oral QD 0.3 mg/kg/day, 24 h post final dose
[8] = oral QD 3 mg/kg/day, 24 h post final dose
[9] = oral QD 30 mg/kg/day, 24 h post final dose

For `Cn1c(=O)oc2ccc(-c3ccc(C[C@@H](C#N)NC(=O)[C@@H]4CNCCCO4)cc3)cc21` [brensocatib], the “Recovery: Time to reach 50% recovery, NE” value (NE; [1]) was 0.8 days, the “Recovery: Time to reach 90% recovery, NE” value (NE; [1]) was 4.9 days and the “Recovery: Time to reach 95% recovery, NE” value (NE; [1]) was 5.6 days. The “Recovery: Time to reach 100% recovery, NE” value (NE; [1]) was 6.6 days, the “Percent change from vehicle NE” value (NE; 1 day recovery after 8 days of 5 mg/kg BID) was −49% (p < 0.0001) and the “Percent change from vehicle NE” value (NE; 3 days recovery after 8 days of 5 mg/kg BID) was −4% (p = 0.9544). For the same molecule, the “Percent change from vehicle NE” value (NE; 6 days recovery after 8 days of 5 mg/kg BID) was −20% (p = 0.0067), the “Percent change from vehicle NE” value (NE; 8 days recovery after 8 days of 5 mg/kg BID) was −2% (p = 0.9986) and the “Percent change from vehicle NE” value (NE; 10 days recovery after 8 days of 5 mg/kg BID) was “+15% (p = 0.0607)”. The “Reduction of PR3 activity vs vehicle” value (PR3; [2]) was 70%, the “Reduction of PR3 activity vs vehicle” value (PR3; QD highest dose (30 mg/kg/day)) was 52% and the “Combined BID and QD percentage reduction, PR3” value (PR3; [3]) was 61%. For the same molecule, the “Change From Vehicle Control (%) PR3” value (PR3; [4]) was “+13% (p = 0.6435)”, the “Change From Vehicle Control (%) PR3” value (PR3; [5]) was −26% (p = 0.1243) and the “Change From Vehicle Control (%) PR3” value (PR3; [6]) was −70% (p < 0.0001). The “Change From Vehicle Control (%) PR3” value (PR3; [7]) was −7% (p = 0.9149), the “Change From Vehicle Control (%) PR3” value (PR3; [8]) was −13% (p = 0.6769) and the “Change From Vehicle Control (%) PR3” value (PR3; [9]) was −52% (p = 0.0010). For the same molecule, the “Reduction of CatG activity vs vehicle” value (CatG; [2]) was 92%, the “Reduction of CatG activity vs vehicle” value (CatG; QD highest dose (30 mg/kg/day)) was 84% and the “Combined BID and QD percentage reduction, CatG” value (CatG; [3]) was 88%. The “Change From Vehicle Control (%) CatG” value (CatG; [4]) was −1% (p = 0.9993), the “Change From Vehicle Control (%) CatG” value (CatG; [5]) was −36% (p = 0.0165) and the “Change From Vehicle Control (%) CatG” value (CatG; [6]) was −92% (p < 0.0001). For the same molecule, the “Change From Vehicle Control (%) CatG” value (CatG; [7]) was −2% (p = 0.9983), the “Change From Vehicle Control (%) CatG” value (CatG; [8]) was −39% (p = 0.0058) and the “Change From Vehicle Control (%) CatG” value (CatG; [9]) was −84% (p < 0.0001).
